Source: the NIST ThermoML archive (doi:10.1021/je301353z)

Assay: xn = mol fraction of the nth substance listed
Conditions: 101 kPa, Liquid; for speed of sound: Sing-around technique in a fixed-path interferometer; for mass density: Vibrating tube method

c1ccncc1 [pyridine] + CN1CCCC1=O
Conditions | mass density, 293.15 K [kg/m3] | mass density, 298.15 K [kg/m3] | mass density, 303.15 K [kg/m3] | mass density, 308.15 K [kg/m3] | speed of sound, 293.15 K [m/s] | speed of sound, 298.15 K [m/s] | speed of sound, 303.15 K [m/s] | speed of sound, 308.15 K [m/s]
x2 = 0.1276 | 994.55 | 989.82 | 985.09 | 980.3 | 1467.8 | 1445 | 1425.5 | 1405.3
x2 = 0.1779 | 998.64 | 993.95 | 989.28 | 984.53 | 1478.4 | 1455.9 | 1436.8 | 1416.4
x2 = 0.2348 | 1003 | 998.35 | 993.72 | 988.98 | 1490.6 | 1468.4 | 1449.4 | 1429.1
x2 = 0.2664 | 1005.29 | 1000.65 | 996.04 | 991.33 | 1497.6 | 1475.5 | 1456.2 | 1436.2
x2 = 0.3291 | 1009.56 | 1004.94 | 1000.35 | 995.65 | 1511.1 | 1489 | 1469.8 | 1449.7
x2 = 0.3707 | 1012.2 | 1007.56 | 1002.99 | 998.31 | 1519.6 | 1498 | 1478.9 | 1458.8
x2 = 0.4328 | 1015.86 | 1011.21 | 1006.65 | 1001.96 | 1532.2 | 1510.7 | 1491.6 | 1471.5
x2 = 0.4749 | 1018.16 | 1013.51 | 1008.96 | 1004.25 | 1540.4 | 1518.6 | 1499.5 | 1479.4
x2 = 0.5215 | 1020.5 | 1015.82 | 1011.28 | 1006.63 | 1548.4 | 1527 | 1508.3 | 1487.9
x2 = 0.5647 | 1022.48 | 1017.8 | 1013.27 | 1008.63 | 1555.7 | 1534.4 | 1515.3 | 1495.4
x2 = 0.6364 | 1025.43 | 1020.74 | 1016.23 | 1011.56 | 1565.6 | 1544.5 | 1525.6 | 1505.9
x2 = 0.6778 | 1026.91 | 1022.19 | 1017.71 | 1013.05 | 1569.8 | 1549 | 1530.8 | 1510.5
x2 = 0.7312 | 1028.58 | 1023.87 | 1019.36 | 1014.76 | 1574.5 | 1553.6 | 1535.6 | 1515.4
x2 = 0.7701 | 1029.65 | 1024.9 | 1020.4 | 1015.79 | 1576.5 | 1556.2 | 1537.8 | 1518.1
x2 = 0.8321 | 1031.09 | 1026.29 | 1021.76 | 1017.16 | 1577.6 | 1557.6 | 1539.3 | 1519.7
x2 = 0.8711 | 1031.8 | 1026.99 | 1022.43 | 1017.79 | 1576.7 | 1556.8 | 1538.9 | 1519.1
x2 = 0.9011 | 1032.27 | 1027.41 | 1022.83 | 1018.17 | 1575.4 | 1555.7 | 1537.4 | 1517.6
x2 = 0.9312 | 1032.65 | 1027.76 | 1023.14 | 1018.45 | 1573.3 | 1553.5 | 1535.4 | 1515.6

O=C1CCCN1 [2-pyrrolidinone] + c1ccncc1
Conditions | mass density, 293.15 K [kg/m3] | mass density, 298.15 K [kg/m3] | mass density, 303.15 K [kg/m3] | mass density, 308.15 K [kg/m3] | speed of sound, 293.15 K [m/s] | speed of sound, 298.15 K [m/s] | speed of sound, 303.15 K [m/s] | speed of sound, 308.15 K [m/s]
x1 = 0.1333 | 1001.83 | 997.07 | 992.29 | 987.38 | 1468.5 | 1445.6 | 1426.5 | 1406.5
x1 = 0.1801 | 1008.31 | 1003.57 | 998.88 | 994.01 | 1478.1 | 1455.5 | 1436.7 | 1416.9
x1 = 0.2312 | 1015.32 | 1010.62 | 1006.02 | 1001.17 | 1488.6 | 1466.4 | 1447.9 | 1428.3
x1 = 0.2713 | 1020.76 | 1016.1 | 1011.55 | 1006.71 | 1496.9 | 1475.1 | 1456.6 | 1437.4
x1 = 0.3312 | 1028.79 | 1024.17 | 1019.7 | 1014.93 | 1509.4 | 1488.1 | 1469.8 | 1450.9
x1 = 0.3717 | 1034.17 | 1029.56 | 1025.16 | 1020.41 | 1518 | 1496.8 | 1478.8 | 1460
x1 = 0.4312 | 1041.94 | 1037.41 | 1033.04 | 1028.34 | 1530.8 | 1510 | 1491.9 | 1473.6
x1 = 0.4752 | 1047.59 | 1043.13 | 1038.77 | 1034.15 | 1540.2 | 1519.7 | 1501.8 | 1483.5
x1 = 0.5316 | 1054.74 | 1050.35 | 1046.02 | 1041.5 | 1552.3 | 1532.1 | 1514.4 | 1496.3
x1 = 0.5717 | 1059.77 | 1055.45 | 1051.12 | 1046.65 | 1560.9 | 1541 | 1523.2 | 1505.6
x1 = 0.6219 | 1065.97 | 1061.74 | 1057.4 | 1053.03 | 1571.9 | 1552.1 | 1534.4 | 1517
x1 = 0.6772 | 1072.71 | 1068.57 | 1064.23 | 1059.98 | 1583.7 | 1564.5 | 1546.7 | 1529.5
x1 = 0.7314 | 1079.26 | 1075.19 | 1070.86 | 1066.7 | 1595.4 | 1576.4 | 1558.8 | 1541.7
x1 = 0.7714 | 1084.05 | 1080.04 | 1075.69 | 1071.59 | 1603.9 | 1585.1 | 1567.6 | 1550.7
x1 = 0.8312 | 1091.16 | 1087.2 | 1082.86 | 1078.85 | 1616.4 | 1598.2 | 1580.7 | 1564.3
x1 = 0.8712 | 1095.91 | 1091.96 | 1087.64 | 1083.64 | 1624.7 | 1606.7 | 1589.3 | 1573.2
x1 = 0.9013 | 1099.48 | 1095.53 | 1091.23 | 1087.24 | 1630.8 | 1613.2 | 1596 | 1580
x1 = 0.9311 | 1103.03 | 1099.05 | 1094.78 | 1090.78 | 1636.8 | 1619.6 | 1602.4 | 1586.6
